Where only a bound is given, the exact number is not on record here.

Assay [1] concerns the target PDGFR (Homo sapiens, UniProt P09619). The assay is described as follows: PDGF-R ELISA (cellular kinase assay). The assay is classed as cell-based. The settings on record: 50% inhibition of PTK activity over control. The procedure: The cellular/catalytic assays described herein are performed in an ELISA format. The general procedure is a follows: a compound is introduced to cells expressing the test kinase, either naturally or recombinantly, for some period of time after which, if the test kinase is a receptor, a ligand known to activate the receptor's activity is added. The cells are lysed and the lysate is transferred to the wells of an ELISA plate previously coated with a specific antibody recognizing the substrate of the enzymatic phosphorylation reaction. Non-substrate components of the cell lysate are washed away and the amount of phosphorylation on the substrate is detected with an antibody specifically recognizing phosphotyrosine compared with control cells that were not contacted with a test compound.
All cell culture media, glutamine, and fetal bovine serum can be purchased from Gibco Life Technologies (Grand Island, N.Y.) unless otherwise specified. All cells are grown in a humid atmosphere of 90-95% air and 5-10% CO2 at 37° C. All cell lines are routinely subcultured twice a week and are negative for mycoplasma as determined by the Mycotect method (Gibco).
For ELISA assays, cells (U1242, obtained from Joseph Schlessinger, NYU) are grown to 80-90% confluency in growth medium (MEM with 10% FBS, NEAA, 1 mM NaPyr and 2 mM GLN) and seeded in 96-well tissue culture plates in 0.5% serum at 25,000 to 30,000 cells per well. After overnight incubation in 0.5% serum-containing medium, cells are changed to serum-free medium and treated with test compound for 2 hr in a 5% CO2, 37° C. incubator. Cells are then stimulated with ligand for 5-10 minute followed by lysis with HNTG (20 mM Hepes, 150 mM NaCl, 10% glycerol, 5 mM EDTA, 5 mM Na3VO4, 0.2% Triton X-100, and 2 mM NaPyr). Cell lysates (0.5 mg/well in PBS) are transferred to ELISA plates previously coated with receptor-specific antibody and which had been blocked with 5% milk in TBST (50 mM Tris-HCl pH 7.2, 150 mM NaCl and 0.1% Triton X-100) at room temperature for 30 min. Lysates are incubated with shaking for 1 hour at room temperature. The plates are washed with TBST four times and then incubated with polyclonal anti-phosphotyrosine antibody at room temperature for 30 minutes. Excess anti-phosphotyrosine antibody is removed by rinsing the plate with TBST four times. Goat anti-rabbit IgG antibody is added to the ELISA plate for 30 min at room temperature followed by rinsing with TBST four more times. ABTS (100 mM citric acid, 250 mM Na2HPO4 and 0.5 mg/mL 2,2′-azino-bis(3-ethylbenzthiazoline-6-sulfonic acid)) plus H2O2 (1.2 mL 30% H2O2 to 10 mL ABTS) is added to the ELISA plates to start color development. Absorbance at 410 nm with a reference wavelength of 630 nm is recorded about 15 to 30 min after ABTS addition.
In general terms: ELISA stands for enzyme-linked immunosorbent assay.

The target in assay [2] is HER2 Kinase (Homo sapiens, UniProt P04626). Kind of assay: HER-2 ELISA: EGF receptor-HER2 chimeric receptor assay in whole cells. The settings on record: 50% inhibition of PTK activity over control. The class given is cell-based. The procedure: The cellular/catalytic assays described herein are performed in an ELISA format. […] The cells are lysed and the lysate is transferred to the wells of an ELISA plate previously coated with a specific antibody recognizing the substrate of the enzymatic phosphorylation reaction. Non-substrate components of the cell lysate are washed away and the amount of phosphorylation on the substrate is detected with an antibody specifically recognizing phosphotyrosine compared with control cells that were not contacted with a test compound. HER-2 ELISA […] EGF Receptor-HER2 Chimeric Receptor Assay in Whole Cells. HER2 kinase activity in whole EGFR-NIH3T3 cells are measured as described below: Materials and Reagents. The following materials and reagents can be used to conduct the assay: a. EGF: stock concentration: 16.5 ILM; EGF 201, TOYOBO, Co., Ltd. Japan. b. 05-101 (UBI) (a monoclonal antibody recognizing an EGFR extracellular domain). c. Anti-phosphotyrosine antibody (anti-Ptyr) (polyclonal)(see, Fendley, et al., supra). d. Detection antibody: Goat anti-rabbit lgG horse radish peroxidase conjugate, TAGO, Inc., Burlingame, Calif. e. TBST buffer: [table] f. HNTG 5×stock: [table] g. ABTS stock: [table] h. Stock reagents of: [table] Procedure. The following protocol is used: A. Pre-coat ELISA Plate […] Coat ELISA plates (Corning, 96 well, Cat. #25805-96) with 05-101 antibody at 0.5 µg per well in PBS, 100 μL final volume/well, and store overnight at 4° C. Coated plates are good for up to 10 days when stored at 4° C. 2. On day of use, remove coating buffer and replace with 100 μL blocking buffer (5% Carnation Instant Non-Fat Dry Milk in PBS). Incubate the plate, shaking, at room temperature (about 23° C. to 25° C.) for 30 minutes. Just prior to use, remove blocking buffer and wash plate 4 times with TBST buffer. B. Seeding Cells […] An NIH3T3 cell line overexpressing a chimeric receptor containing the EGFR extracellular domain and intracellular HER2 kinase domain can be used for this assay. 2. Choose dishes having 80-90% confluence for the experiment. […]
HER2 Kinase, sequence (P00533 25-645): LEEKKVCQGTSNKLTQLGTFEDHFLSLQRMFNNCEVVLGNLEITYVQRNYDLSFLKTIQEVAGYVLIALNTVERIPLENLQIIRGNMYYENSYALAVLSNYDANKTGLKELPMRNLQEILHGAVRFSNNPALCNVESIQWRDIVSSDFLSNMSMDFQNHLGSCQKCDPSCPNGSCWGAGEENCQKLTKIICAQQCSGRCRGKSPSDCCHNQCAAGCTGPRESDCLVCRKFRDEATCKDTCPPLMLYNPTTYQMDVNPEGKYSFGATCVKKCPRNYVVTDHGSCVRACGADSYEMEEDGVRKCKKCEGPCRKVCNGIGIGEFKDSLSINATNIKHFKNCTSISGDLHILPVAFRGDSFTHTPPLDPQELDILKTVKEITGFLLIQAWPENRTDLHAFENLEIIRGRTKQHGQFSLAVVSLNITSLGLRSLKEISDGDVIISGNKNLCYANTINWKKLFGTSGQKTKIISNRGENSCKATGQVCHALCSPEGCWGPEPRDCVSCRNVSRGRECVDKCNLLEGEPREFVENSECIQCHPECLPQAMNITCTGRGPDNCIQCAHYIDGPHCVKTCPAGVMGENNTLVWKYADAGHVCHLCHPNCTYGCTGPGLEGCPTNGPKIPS
HER2 Kinase, sequence (P04626 676-1255): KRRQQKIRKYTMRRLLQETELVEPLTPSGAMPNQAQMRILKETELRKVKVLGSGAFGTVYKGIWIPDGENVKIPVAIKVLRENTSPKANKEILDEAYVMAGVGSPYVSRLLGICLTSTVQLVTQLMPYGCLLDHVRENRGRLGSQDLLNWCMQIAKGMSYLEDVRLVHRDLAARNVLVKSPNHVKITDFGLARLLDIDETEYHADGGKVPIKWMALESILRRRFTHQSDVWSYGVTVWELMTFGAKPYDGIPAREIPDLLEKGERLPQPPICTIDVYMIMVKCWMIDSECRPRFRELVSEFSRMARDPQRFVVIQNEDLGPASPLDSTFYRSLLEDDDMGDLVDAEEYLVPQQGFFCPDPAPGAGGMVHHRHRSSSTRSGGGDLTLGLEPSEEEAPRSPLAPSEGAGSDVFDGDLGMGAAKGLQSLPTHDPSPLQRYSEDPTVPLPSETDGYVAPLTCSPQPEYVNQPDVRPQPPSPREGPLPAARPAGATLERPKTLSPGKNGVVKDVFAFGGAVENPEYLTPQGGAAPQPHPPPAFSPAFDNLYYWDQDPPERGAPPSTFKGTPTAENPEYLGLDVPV

PDGFR, sequence (P09619 33-1106): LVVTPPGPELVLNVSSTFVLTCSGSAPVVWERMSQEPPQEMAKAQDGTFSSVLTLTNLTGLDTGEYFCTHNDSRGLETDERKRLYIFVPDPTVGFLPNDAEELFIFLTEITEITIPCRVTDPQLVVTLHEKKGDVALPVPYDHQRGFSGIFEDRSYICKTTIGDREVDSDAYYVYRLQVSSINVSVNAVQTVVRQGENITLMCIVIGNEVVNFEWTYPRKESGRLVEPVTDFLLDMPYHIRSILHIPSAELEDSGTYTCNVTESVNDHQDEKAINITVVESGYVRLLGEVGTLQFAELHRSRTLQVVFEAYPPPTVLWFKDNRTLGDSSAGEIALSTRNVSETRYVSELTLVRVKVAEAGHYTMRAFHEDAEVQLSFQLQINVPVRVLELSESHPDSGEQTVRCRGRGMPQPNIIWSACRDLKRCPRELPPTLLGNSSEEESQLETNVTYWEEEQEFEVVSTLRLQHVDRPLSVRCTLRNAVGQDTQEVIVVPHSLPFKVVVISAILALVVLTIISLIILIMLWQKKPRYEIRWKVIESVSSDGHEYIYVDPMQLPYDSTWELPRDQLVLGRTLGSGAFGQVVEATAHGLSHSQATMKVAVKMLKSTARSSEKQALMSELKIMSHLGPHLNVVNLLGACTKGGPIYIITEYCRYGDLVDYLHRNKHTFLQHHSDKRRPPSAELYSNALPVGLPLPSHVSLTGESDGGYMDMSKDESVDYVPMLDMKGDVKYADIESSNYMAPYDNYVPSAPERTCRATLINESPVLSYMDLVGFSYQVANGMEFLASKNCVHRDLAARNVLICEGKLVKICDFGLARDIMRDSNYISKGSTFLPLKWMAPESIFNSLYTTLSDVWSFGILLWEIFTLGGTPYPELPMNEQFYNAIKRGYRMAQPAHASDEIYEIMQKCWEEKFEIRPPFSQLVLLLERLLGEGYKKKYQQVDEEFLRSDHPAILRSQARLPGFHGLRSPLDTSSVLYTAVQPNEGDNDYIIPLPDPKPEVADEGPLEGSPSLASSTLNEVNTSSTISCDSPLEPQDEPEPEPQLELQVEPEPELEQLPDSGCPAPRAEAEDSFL

`CCOC(=O)c1[nH]c(C=C2C(=O)Nc3ccccc32)c(C(C)=O)c1C` [3-(4-acetyl-2-ethoxycarbonyl-3-methylpyrrol-5-methylidenyl)-2-indolinone]: the IC50 (usually the concentration that inhibits the measured activity by half) in assay [1] was above 10 µM. Consider `CCOC(=O)c1c[nH]c(C=C2C(=O)Nc3ccccc32)c1C` [3-(4-ethoxycarbonyl-3-methylpyrrol-2-methylidenyl)-2-indolinone], for which the IC50 in assay [1] and in assay [2] was above 100 µM in each case.

With `CCOC(=O)CCc1c(C(=O)OCC)[nH]c(C=C2C(=O)Nc3ccccc32)c1CC(=O)OCC` [3-[2-ethoxycarbonyl-3-(2-ethoxycarbonylethyl)-4-ethoxycarbonylmethyl)pyrrol-5-methylidenyl)-2-indolinone], the IC50 in assay [1] and in assay [2] was above 10 µM throughout. Turning to `COC(=O)CCc1c[nH]c(C=C2C(=O)Nc3cc(OC)c(OC)cc32)c1C` [3-[4-(2-methoxycarbonylethyl)-3-methylpyrrol-2-methylidenyl]-5,6-dimethoxy-2-indolinone], the IC50 was 22.3 µM in assay [1] and above 50 µM in assay [2].

The values are drawn from patent US6486185B1, “3-heteroarylidene-2-indolinone protein kinase inhibitors” (Sugen, Inc., priority 1997, dated 2002).
